Results published in patent US5612360A, “Angiotensin II antagonists” (Eli Lilly and Company, priority 1993, dated 1997).
pKi: −log10 of the molar value.

Assays:
angiotensin II receptor = assay: Adrenal Glomerulosa Test System: displacement of I^125-angiotensin II binding to rat adrenal membranes; settings: I^125-angiotensin II 0.1 nM, room temperature, 90 minutes, KI by Cheng Prusoff equation
Description: The compounds of Formula I are potent effective antagonists of angiotensin II. The ability of representative compounds of Formula I to block angiotensin II receptor binding was determined using the adrenal glomerulosa assay. The ability to antagonize angiotensininduced vasoconstriction was evaluated in the rabbit aorta test system.
Binding of I^125 -angiotensin II to adrenal membranes was routinely carried out in 96-well filtration plates. Adrenal membranes were prepared from the capsular portion (glomerulosal layer attached) of rat adrenal glands by differential centrifugation. Briefly, capsules were homogenized in a solution containing sucrose, 250 mM; MgCl2, 1 mM; and tris, 5 mM at pH 7.5 and 4° C. using a polytron at setting 5 for 20 seconds. The homogenate was stirred gently for 15 minutes at 4° C. and then centrifuged 10 minutes, at 1000×g, 4° C. The supernatant was centrifuged 30 minutes, at 30,000×g, 4° C., and the resulting pellet resuspended in 50 mM tris. Membrane preparations were stored in aliquots at -70° C. until used. Binding of I^125 -angiotensin II to adrenal membranes was performed at room temperature for 90 minutes in 96-well plates containing a hydrophilic polyvinylidene fluoride membrane (0.45 μm, Millipore-GV multiscreen). Each 250 μl incubate contained the following (final concentration): tris, 50 mM; NaCl, 120 mM; MgCl2, 5 mM; dithiothrietol 1 mM; bovine serum albumin, 0.05%; I^125 -angiotensin II, 0.1 nM; and adrenal membrane protein, 8-15 μg. Antagonists were added in concentrations from 10 nM to 100 μM. Non-specific binding was measured in the presence of 0.1 μM Sar1, Ile8 angiotensin II. Binding was terminated by vacuum filtration. Receptor-ligand complex trapped on filters was washed 3 times with 300 μl ice-cold wash solution (tris, 50 mM; NaCl, 120 mM; MgCl2, 5 mM; dithiothrietol, 1 mM). Filter discs were dried, punched out and counted in a gamma counter at 52% efficiency. Specific binding represented 96% of total binding (approximately 150 fmol angiotensin II/mg protein). The molar concentration (IC50) of the inhibitor that displaced 50% of the binding of 1125 angiotensin II for each compound was calculated using a 4 parameter logistics model (NonLin, SAS Institute). Data are expressed as KI (μm) calculated using the Cheng Prusoff equation. See Cheng et al. Biochemo Pharmacol. 22: 3099 (1973).

rabbit aorta = target: T1, rabbit aorta (Oryctolagus cuniculus, UniProt P34976); assay: Rabbit Aorta Test System: antagonism of angiotensin II-induced contraction of thoracic aorta rings; assay type: cell-based, New Zealand white rabbit; settings: pA2 = -log KB; AII concentration response curve 10^-10 to 10^-7 M, 30 minutes incubation, 37° C.
T1 sequence (P34976 1-359): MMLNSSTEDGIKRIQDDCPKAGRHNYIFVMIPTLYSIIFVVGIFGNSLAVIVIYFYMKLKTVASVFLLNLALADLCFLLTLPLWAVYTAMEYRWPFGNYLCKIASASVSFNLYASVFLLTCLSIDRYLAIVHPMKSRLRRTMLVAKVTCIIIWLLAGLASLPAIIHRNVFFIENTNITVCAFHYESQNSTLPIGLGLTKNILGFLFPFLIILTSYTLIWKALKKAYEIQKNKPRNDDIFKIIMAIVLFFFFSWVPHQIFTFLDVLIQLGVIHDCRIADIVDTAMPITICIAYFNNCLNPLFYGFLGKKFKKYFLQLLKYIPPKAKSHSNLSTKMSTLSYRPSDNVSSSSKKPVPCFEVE

| Compound | pKi (angiotensin II receptor) | Rabbit Aorta (pA2) (rabbit aorta) |
| --- | --- | --- |
| CCCCCC(C(=O)O)n1ccc2cc(-c3ccccc3-c3nn[nH]n3)ccc21 (stereo not shown) [Example 22, 2-[5-[2-(2H-Tetrazol-5-yl)phenyl]indol-1-yl]heptanoic Acid] | 5.76 | – |
| CCCCCCC(C(=O)N(C)CC(=O)O)n1cnc2cc(-c3ccccc3-c3nn[nH]n3)ccc21 (stereo not shown) [Example 37, 1-[1-Oxo-2-[5-[2-(2H-tetrazol-5-yl]phenyl]-1H-benzimidazol-1]octyl]-N-methylglycine] | 7.09 | – |
| CCCCCCC(C(=O)O)n1ccc2cc(-c3ccccc3C(=O)O)ccc21 (stereo not shown) [Example 1, 2[-5-(2-Carboxyphenyl)indol-1-yl]octanoic acid] | 5.41 | – |
| CCCCCCC(CC(=O)O)n1ccc2cc(-c3ccccc3-c3nn[nH]n3)ccc21 (stereo not shown) [Example 21, 3-[5-[2-(2H-Tetrazol-5-yl)phenyl]indol-1-yl]nonanoic Acid] | 5.65 | – |
| 1-[5(and 6)-[2-(2H-Tetrazol-5-yl)phenyl]-2-pentyl-1H-benzimidazol-1-yl]acetic acid [Example 61] | – | 5.4 |
| 2-[1-Hexyl-5-[2-(2H-tetrazol-5-yl)phenyl]-1H-benzimidazol-2-yl]propionic Acid [Example 30] | – | 6.5 |
| CCCCCCC(c1nnn[nH]1)n1cnc2cc(-c3ccccc3-c3nnn[nH]3)ccc21 (stereo not shown) [Example 34] | 7.21 | – |
| CCCCCCC(C(=O)N1CCC[C@H]1C(=O)O)n1cnc2cc(-c3ccccc3-c3nn[nH]n3)ccc21 (stereo partly drawn) [Example 9, 1-[1-Oxo-2-[5-[2-(2H-tetrazol-5-yl)phenyl]-1H-benzimidazole-1-yl]octyl]-L-proline] | 7.54 | – |
| CCCCC(c1cccc(C(F)(F)F)c1)n1ccc2cc(-c3ccccc3-c3nn[nH]n3)ccc21 (stereo not shown) [Example 28, 5-[2-(2H-tetrazol-5-yl)phenyl]-1-[1-(3-trifluoromethylphenyl)-1-pentyl]indole] | 4.84 | – |
| CCCCCCC(C(=O)O)n1cnc2cc(-c3ccccc3-c3nn[nH]n3)ccc21 (stereo not shown) [Example 3, 2-[5-[2-(2H-Tetrazol-5-yl)phenyl]-1H-benzimidazol-1-yl]octanoic acid] | 5.25 | – |
| CCCCCCC(C(=O)N1CC(O)C[C@H]1C(=O)O)n1cnc2cc(-c3ccccc3-c3nn[nH]n3)ccc21 (stereo partly drawn) [Example 13, 1-[1-oxo-2-[5-[2-(2H-tetrazol-5-yl)phenyl]-1H-benzimidazole-1-yl]octyl]-4-hydroxy-L-proline] | 8.38 | – |
| CCCCCC#CC(C(=O)O)n1cnc2cc(-c3ccccc3-c3nn[nH]n3)ccc21 (stereo not shown) [Example 16] | – | 7.2 |
| CCCCCCC(C(=O)N1CCC(C(=O)O)C1)n1cnc2cc(-c3ccccc3-c3nn[nH]n3)ccc21 (stereo not shown) [Example 44] | 6.70 | – |
| CCCCCCC(C(=O)O)n1cc(Br)c2cc(-c3ccccc3-c3nnn[nH]3)ccc21 (stereo not shown) [Example 26, 2-[3-Bromo-5-[2-[2H-tetrazol-5-yl)phenyl]indo-1-yl]octanoic Acid] | 5.24 | – |
| CCCCCCC(C(=O)N[C@@H](CO)C(=O)O)n1cnc2cc(-c3ccccc3-c3nn[nH]n3)ccc21 (stereo partly drawn) [Example 42, N-[1-oxo-2-[5-[2-(2H-tetrazol-5-yl]phenyl]-1H-benzimidazol-1-yl]octyl]-L-serine] | 6.58 | – |
| CCCCCCC(C(=O)O)n1ncc2cc(-c3ccccc3-c3nn[nH]n3)ccc21 (stereo not shown) [27 2H] | 5.27 | – |
| CCCCCCC(C(=O)O)n1cc(Cc2ccccc2)c2cc(-c3ccccc3-c3nn[nH]n3)ccc21 (stereo not shown) [Example 24, 2-[3-benzyl-5-[2-(2H-tetrazol-5-yl)phenyl]indol-1-yl]octanoic Acid] | 4.86 | – |
| CCCCCCC(C(=O)N[C@@H](CC(=O)O)C(=O)O)n1cnc2cc(-c3ccccc3-c3nn[nH]n3)ccc21 (stereo partly drawn) [Example 41, N-[1-Oxo-2-[5-[2-(2H-tetrazol-5-yl]phenyl]-1H-benzimidazol-1-yl]octyl]-L-aspartic Acid] | 7.00 | – |
| 4-Butoxy-2-[5(and 6)-[2-(2H-tetrazol-5-yl)phenyl]-1H-benzimidazol-1-yl]-butanoic acid [Example 11] | – | 6.7 |
| CCCCCCC(C(=O)O)n1ccc2cc(-c3cccc(O)c3C(=O)O)ccc21 (stereo not shown) [Example 2, 2-[5-(2-Carboxy-3-hydroxyphenyl)indol-1-yl]octanoic acid] | 5.02 | – |
| CCCCC(c1ccc(C(F)(F)F)cc1)n1ccc2cc(-c3ccccc3-c3nn[nH]n3)ccc21 (stereo not shown) [Example 29, 5-[2-(2H-tetrazol-5-yl)phenyl]-1-[1-(4-trifluoromethylphenyl)-1-pentyl]indole] | 4.72 | – |
| CCCCCCC(C(=O)N1CC2(C[C@H]1C(=O)O)OCCO2)n1cnc2cc(-c3ccccc3-c3nn[nH]n3)ccc21 (stereo partly shown) [Example 40] | 6.60 | – |
| CCCCCCC(c1nccn1C)n1cnc2cc(-c3ccccc3-c3nnn[nH]3)ccc21 (stereo not shown) [Example 14, 1-Methyl-2-[1-[5-2-(2H-Tetrazol-5-yl)phenyl-1H-benzimidazol-1-yl]heptyl]-1H-imidazole] | 5.97 | – |
| CCCCCCC(C(=O)N1CCC1C(=O)O)n1cnc2cc(-c3ccccc3-c3nn[nH]n3)ccc21 (stereo not shown) [Example 43] | 7.16 | – |
| CCCCCCC(C(=O)O)n1c(C(F)(F)F)nc2cc(-c3ccccc3-c3nn[nH]n3)ccc21 (stereo not shown) [Example 6, 2-[5-[2-(2H-Tetrazol-5-yl)phenyl]-2-trifluoromethyl-1H-benzimidazol-1-yl]octanoic acid] | 7.07 | – |
| CCCC/C=C\C(C(=O)O)n1ccc2cc(-c3ccccc3-c3nn[nH]n3)ccc21 (stereo not drawn) [Example 25B, 2-[5-[2-(2H-tetrazol-5-yl)phenyl]indol-1-yl]-3-cis-octenoic acid] | – | 7.3 |
| CCCC/C=C/C(C(=O)O)n1ccc2cc(-c3ccccc3-c3nn[nH]n3)ccc21 (stereo not drawn) [Example 25A, 2-[5-[2-(2H-Tetrazol-5-yl)phenyl]indol-1-yl]-3-trans-octenoic acid] | – | 6.5 |
| CCCCCCC(C(=O)O)n1c(C)nc2cc(-c3ccccc3-c3nnn[nH]3)ccc21 (stereo not shown) [Example 5] | 6.44 | – |
